Like-named read-outs stand apart in the source and are kept apart here.
Experiments:
[1] = system: 2019 novel coronavirus (SARS-CoV-2); experiment: Inhibition of 2019 novel coronavirus (SARS-CoV-2) replication in Vero E6 cells, virus copy number by qRT-PCR; format: cell-based
[2] = Cytotoxicity test on Vero E6 cells by CCK8 kit; format: cell-based; conditions: African green monkey
Experimental: (§1) In this example, the median toxic concentration (CC50) of each example on Vero E6 cells was analysed and determined by CCK8 kit.

SARS-CoV-2 = conditions: existing literature; cited from earlier work
Vero E6 cells = experiment: Cytotoxicity test on Vero E6 cells by CCK8 kit; format: cell-based
Experimental: as §1

[3] = Severe acute respiratory syndrome coronavirus 2, Vero C1008, Vero E6 cells, MOI 0.01, 24 h p.i., qRT-PCR of supernatant
[4] = Severe acute respiratory syndrome coronavirus 2, Vero C1008, 24 h

Row | Compound | EC50 [1, 3] [µM] | CC50 [2] [µM] | other results
1 | COc1cc2c3cc1Oc1c(OC)c(OC)cc4c1[C@@H](Cc1ccc(C(=O)Nc5ccccc5)c(c1)Oc1ccc(cc1)C[C@@H]3N(C)CC2)N(C)CC4 [Compound 51] | < 2 | 10.2 | –
2 | COc1cc2c3cc1Oc1c(OC)c(OC)cc4c1[C@@H](Cc1ccc(C)c(c1)Oc1ccc(cc1)C[C@@H]3N(C)CC2)N(C)CC4 [Compound 41] | 2.45 | 10.2 | –
3 | COc1cc2c3cc1Oc1c(OC)c(OC)cc4c1[C@@H](Cc1ccc(C(=O)N5CCCCC5)c(c1)Oc1ccc(cc1)C[C@@H]3N(C)CC2)N(C)CC4 [Compound 47] | < 2 | 24.6 | –
4 | COc1cc2c3cc1Oc1c(OC)c(OC)cc4c1[C@@H](Cc1ccc(C(=O)NC5CCC5)c(c1)Oc1ccc(cc1)C[C@@H]3N(C)CC2)N(C)CC4 [Compound 57] | < 2 | 33.9 | –
5 | COc1cc2c3cc1Oc1c(OC)c(OC)cc4c1[C@@H](Cc1ccc(C#N)c(c1)Oc1ccc(cc1)C[C@@H]3N(C)CC2)N(C)CC4 [Compound 1] | 0.7 | 25.6 | –
6 | COc1cc2c3cc1Oc1c(OC)c(OC)cc4c1[C@@H](Cc1ccc(C(=O)Nc5ccc(C(F)(F)F)cc5)c(c1)Oc1ccc(cc1)C[C@@H]3N(C)CC2)N(C)CC4 [Compound 54] | < 2 | 10.5 | –
7 | COc1cc2c3cc1Oc1c(OC)c(OC)cc4c1[C@@H](Cc1ccc(C5CC5)c(c1)Oc1ccc(cc1)C[C@@H]3N(C)CC2)N(C)CC4 [Compound 44] | 2.25 | 10.8 | –
8 | COc1cc2c3cc1Oc1c(OC)c(OC)cc4c1[C@@H](Cc1ccc(C=O)c(c1)Oc1ccc(cc1)C[C@@H]3N(C)CC2)N(C)CC4 [Compound 2] | 1.19 | 102 | –
9 | COc1cc2c3cc1Oc1c(OC)c(OC)cc4c1[C@@H](Cc1ccc(C(=O)NC5CC5)c(c1)Oc1ccc(cc1)C[C@@H]3N(C)CC2)N(C)CC4 [Compound 49] | < 2 | 62.3 | –
10 | COc1cc2c3cc1Oc1c(OC)c(OC)cc4c1[C@@H](Cc1ccc(CO)c(c1)Oc1ccc(cc1)C[C@@H]3N(C)CC2)N(C)CC4 [Compound 3] | 1.12 | 70.5 | –
11 | CCCCCNC(=O)c1ccc2cc1Oc1ccc(cc1)C[C@H]1c3cc(c(OC)cc3CCN1C)Oc1c(OC)c(OC)cc3c1[C@@H](C2)N(C)CC3 [Compound 43] | 2.09 | 10.4 | –
12 | C=C(C)c1ccc2cc1Oc1ccc(cc1)C[C@H]1c3cc(c(OC)cc3CCN1C)Oc1c(OC)c(OC)cc3c1[C@@H](C2)N(C)CC3 [Compound 40] | 0.95 | 11.7 | –
13 | COc1cc2c3cc1Oc1c(OC)c(OC)cc4c1[C@@H](Cc1cccc(c1)Oc1ccc(cc1)C[C@@H]3N(C)CC2)N(C)CC4 [Compound 39] | 0.93 | 17.1 | –
14 | COc1cc2c3cc1Oc1c(OC)c(OC)cc4c1[C@@H](Cc1ccc(C(=O)OCCOCCO)c(c1)Oc1ccc(cc1)C[C@@H]3N(C)CC2)N(C)CC4 [Compound 65] | < 2 | 58.4 | –
15 | COc1cc2c3cc1Oc1c(OC)c(OC)cc4c1[C@@H](Cc1ccc(C(C)O)c(c1)Oc1ccc(cc1)C[C@@H]3N(C)CC2)N(C)CC4 (stereo partly drawn) [Compound 46] | 1.02 | 29.7 | –
16 | COc1cc2c3cc1Oc1c(OC)c(OC)cc4c1[C@@H](Cc1cc(cc([N+](=O)[O-])c1)Oc1ccc(cc1)C[C@@H]3N(C)CC2)N(C)CC4 [Compound 33] | 0.63 | 24.3 | –

Row | Compound | EC50 [1, 3] [µM] | CC50 [2] [µM] | other results
17 | COc1cc2c3cc1Oc1c(OC)c(OC)cc4c1[C@@H](Cc1ccc(C(=O)NC(C)C)c(c1)Oc1ccc(cc1)C[C@@H]3N(C)CC2)N(C)CC4 [Compound 55] | < 2 | 32 | –
18 | Berbamine hydrochloride [reference compound] | – | – | Anti-novel coronavirus effect (in words) (SARS-CoV-2): not strong; EC50 [1]: 14.5 µM; CC50 (Vero E6 cells): 29.9 µM
19 | CCCCNC(=O)Oc1ccc2cc1Oc1ccc(cc1)C[C@H]1c3cc(c(OC)cc3CCN1C)Oc1c(OC)c(OC)cc3c1[C@@H](C2)N(C)CC3 [Compound 4] | – | 31.5 | EC50 [1, 4]: 0.94 µM
20 | COc1cc2c3cc1Oc1c(OC)c(OC)cc4c1[C@@H](Cc1ccc(OC(=O)CCCC[C@H]5CCSS5)c(c1)Oc1ccc(cc1)C[C@@H]3N(C)CC2)N(C)CC4 [Compound 5] | 1.5 | 172 | –
21 | COc1cc2c3cc1Oc1c(OC)c(OC)cc4c1[C@@H](Cc1ccc(C(=O)C5CC5)c(c1)Oc1ccc(cc1)C[C@@H]3N(C)CC2)N(C)CC4 [Compound 61] | < 2 | 13.7 | –
22 | COc1cc2c3cc1Oc1c(OC)c(OC)cc4c1[C@@H](Cc1cc(c5oc(=O)[nH]c5c1)Oc1ccc(cc1)C[C@@H]3N(C)CC2)N(C)CC4 [Compound 18] | 0.9 | 14.7 | –
23 | COc1cc2c3cc1Oc1c(OC)c(OC)cc4c1[C@@H](Cc1ccc(C(N)=O)c(c1)Oc1ccc(cc1)C[C@@H]3N(C)CC2)N(C)CC4 [Compound 9] | 0.55 | 63.2 | –
24 | COC(=O)c1ccc2cc1Oc1ccc(cc1)C[C@H]1c3cc(c(OC)cc3CCN1C)Oc1c(OC)c(OC)cc3c1[C@@H](C2)N(C)CC3 [Compound 8] | 0.36 | 31.4 | –
25 | COc1cc2c3cc1Oc1c(OC)c(OC)cc4c1[C@@H](Cc1ccc(C(=O)NCCOCCO)c(c1)Oc1ccc(cc1)C[C@@H]3N(C)CC2)N(C)CC4 [Compound 62] | < 2 | 123 | –
26 | CCCCNC(=O)Oc1c(OC)cc2c3c1Oc1cc4c(cc1OC)CCN(C)[C@H]4Cc1ccc(cc1)Oc1cc(ccc1OC)C[C@H]3N(C)CC2 [Compound 53] | – | 22.2 | EC50 [1, 4]: < 2 µM
27 | COc1cc2c3cc1Oc1c(OC)c(OC)cc4c1[C@@H](Cc1ccc(C(=O)Nc5cccnc5)c(c1)Oc1ccc(cc1)C[C@@H]3N(C)CC2)N(C)CC4 [Compound 58] | < 2 | 26.4 | –
28 | COc1cc2c3cc1Oc1c(OC)c(OC)cc4c1[C@@H](Cc1ccc(C(C)=O)c(c1)Oc1ccc(cc1)C[C@@H]3N(C)CC2)N(C)CC4 [Compound 25] | < 2 | 29.4 | –
29 | C=CC(=O)Nc1ccc2cc1Oc1ccc(cc1)C[C@H]1c3cc(c(OC)cc3CCN1C)Oc1c(OC)c(OC)cc3c1[C@@H](C2)N(C)CC3 [Compound 42] | < 2 | 31.1 | –
30 | COc1ccc(NC(=O)c2ccc3cc2Oc2ccc(cc2)C[C@H]2c4cc(c(OC)cc4CCN2C)Oc2c(OC)c(OC)cc4c2[C@@H](C3)N(C)CC4)cc1 [Compound 59] | < 2 | 10.6 | –
31 | COc1cc2c3cc1Oc1c(OC)c(OC)cc4c1[C@@H](Cc1ccc(C(=O)NC5CCCC5)c(c1)Oc1ccc(cc1)C[C@@H]3N(C)CC2)N(C)CC4 [Compound 28] | 2.4 | 22.5 | –
